Assay results published in patent US20200179369A1, “TREATMENT OF DIABETIC NEPHROPATHY” (TAKEDA GMBH, priority 2015, published 2020).

Key:
[1] = tested on: uninephrectomized db/db mice; assay: Diabetic nephropathy in uninephrectomized db/db mice, 8 week treatment starting 4 weeks after the uninephrectomy; assay type: in vivo; conditions: 8 weeks starting 4 weeks after uninephrectomy
Procedure: Male 5-week-old BKS.Cg-+Lepr^db/+Lepr^db (db/db) mice were purchased from CLEA Japan, Inc. All mice were fed with a standard diet (CE-2, CLEA Japan, Inc.) and tap water ad libitum.
Compound A was obtained from Takeda GmbH, Konstanz, Germany. Irbesartan was purchased from LKT Laboratories, Inc (USA).
In 6 week old male db/db mice an unilateral nephrectomy was performed. Under the anesthesia with isoflurane inhalation, the right kidney was removed from the mice. After 4-week recovery period, blood samples were obtained by the puncture of facial vein and blood level of glycosylated hemoglobin (GHb) was measured by automated HPLC-based GHb analyzer (HLC-723 G8, TOSOH, Japan). After the separation of plasma samples by centrifugation, also plasma levels of glucose (PG) were measured by Autoanalyzer 7180 (Hitachi, Japan). Urine samples were collected for a 8 h time-period using metabolic cages and urine creatinine level was measured by Autoanalyzer 7180. After desaltation of urine samples with PD MiniTrap G-25 column (GE healthcare, UK), urinary levels of albumin were measured by ELISA, and urinary albumin/creatinine ratio (UACR) was calculated.
Compound A (1, 3 and 10 mg/kg, QD), roflumilast (3 mg/kg, QD) and irbesartan (50 mg/kg, QD) were suspended in 0.5% methyl cellulose solution and orally administered to mice for 8 weeks starting 4 weeks after the uninephrectomy.
At the end of the 8 weeks once daily administration blood, plasma and urine samples were obtained according to the same methods as described above. GHb, PG, urinary creatinine and albumin were measured and UACR was calculated. Body weight (BW) was measured every week during the treatment.
For evaluation of the effects of Compound A, statistical differences between vehicle- and Compound A treated groups were analyzed with two-tailed Williams' test for PG and BW and two-tailed Shirley-Williams' test for UACR and GHb. The P-values less than 0.05 were considered statistically significant in two-tailed Williams' test or Shirley-Williams' test.
For roflumilast and irbesartan, statistical differences between vehicle- and compounds-treated groups were analyzed with Student's t-test for GHb, PG and BW and Welch test for UACR. The P-values less than 0.05 were considered statistically significant in Student's t-test and Welch test.

[2] = tested on: uninephrectomized db/db mice; assay: Diabetic nephropathy in uninephrectomized db/db mice, 8 week treatment starting 12 weeks after the uninephrectomy; assay type: in vivo; conditions: 8 weeks starting 12 weeks after uninephrectomy
Procedure: The experimental protocol is similar to the experimental protocol described above with the exception that the 8 week treatment with Compound A or irbesartan was started not already at 4 weeks after the uninephrectomy, but only 12 weeks after the uninephrectomy (i.e. when the increase of urinary albumin/creatinine ratio (UACR) is already in a much more advanced stage). Roflumilast was not used as a comparator in this experiment.
Compound A (1, 3 and 10 mg/kg, QD) and irbesartan (50 and 100 mg/kg, QD) were suspended in 0.5% methyl cellulose solution and orally administered to mice for 8 weeks starting 12 weeks after the uninephrectomy.
For evaluation of the effects of Compound A, statistical differences between vehicle- and Compound A treated groups were analyzed with one-tailed Williams' test for GHB, PG and BW and one-tailed Shirley-Williams' test for UACR. For irbesartan, statistical differences between vehicle- and irbesartan treated groups were analyzed with one-tailed Williams' test for UACR, GHb, PG and BW. The P-values less than 0.025 were considered statistically significant in one-tailed Williams' test or one-tailed Shirley-Williams' test.

Structure (SMILES) | effect on blood level of glycosylated hemoglobin (GHb) ([1]; 50 mg/kg QD oral) | effect on increase of urinary albumin/creatinine ratio (UACR) ([1]; 50 mg/kg QD oral) | effect on plasma levels of glucose (PG) ([1]; 50 mg/kg QD oral) | effect on urinary albumin/creatinine ratio (UACR) ([2]; 50 mg/kg QD oral) | effect on urinary albumin/creatinine ratio (UACR) ([2]; 100 mg/kg QD oral) | effect on body weight (BW) ([2]; 50 and 100 mg/kg QD oral) | effect on glucose plasma levels (PG) ([2]; 50 and 100 mg/kg QD oral) | effect on glycosylated hemoglobin (GHb) ([2]; 50 and 100 mg/kg QD oral) | effect on blood level of glycosylated hemoglobin (GHb) ([1]; 3 mg/kg QD oral) | effect on increase of urinary albumin/creatinine ratio (UACR) ([1]; 3 mg/kg QD oral) | effect on plasma levels of glucose (PG) ([1]; 3 mg/kg QD oral)
CCCCC1=NC2(CCCC2)C(=O)N1Cc1ccc(-c2ccccc2-c2nnn[nH]2)cc1 [irbesartan, 2-butyl-3-[p-(o-1H-tetrazol-5-ylphenyl)benzyl]-1,3-diazaspiro[4.4]non-1-en-4-one, reference compound] | Almost no effect compared to the vehicle group | tended to suppress the increase of UACR, but its effect was not statistically significant | Almost no effect compared to the vehicle group | significant suppression on increase in UACR | significant suppression on increase in UACR | Neither Compound A nor Irbesartan affected the body weight | did not show inhibitory effects | did not show inhibitory effects | – | – | –
O=C(Nc1c(Cl)cncc1Cl)c1ccc(OC(F)F)c(OCC2CC2)c1 [roflumilast, reference compound] | – | – | – | – | – | – | – | – | Almost no effect compared to the vehicle group | mild and was not statistically significant | Almost no effect compared to the vehicle group
